Drawing on patent publication US20130296432A1, “BENZOIC ACID-ENRICHED PLANT EXTRACTS AND USE THEREOF” (EPC (BEIJING) NATURAL PRODUCTS CO., LTD., priority 2012, published 2013), this text covers Inhibition and colony number for two molecules.

This assay concerns Aspergillus niger. In words: Bacteria inhibiting effect, dilution-plate method (colony count). To be noted: 27° C., 72 h. The assay is classed as cell-based. As to the method:
• 1. […] Dilution-plate method The preservatives were dissolved with sterilized water and diluted to the concentrations in Table 1. 1 ml of each sample was added into a sterilized Petri dish, and then 1 ml bacterial suspension was added into each dish. The sample and the bacterial suspension were well mixed in the dish and 20 ml sterilized culture medium was added into the dish at ≦45° C., such that the final concentration of the preservatives is as described in Table 1. After solidification, the dish was incubated in a constant temperature incubator at 27° C. for 72 h, and the number of the colony was then counted.

The mark [1] stands for this setting: final concentration of the preservative 0.01 % (extract calculated as benzoic acid).
Setting [2] is: final concentration of the preservative 0.02 % (extract calculated as benzoic acid).
Where [3] appears, read: final concentration of the preservative 0.04 % (extract calculated as benzoic acid).

Take `O=C(O)c1ccccc1` [Benzoic acid]: the Inhibition is, setting by setting: under setting [1], 0%; under setting [2], 40%; under setting [3], 62%. The colony number is given as 49 cfu/dish under setting [1], 32 cfu/dish under setting [2] and 20 cfu/dish under setting [3].
Take `C/C=C/C=C/C(=O)O` [Sorbic acid]: under setting [1], the Inhibition is 0% and the colony number is listed as 50 cfu/dish. Under setting [2], the Inhibition is reported as 38% and the colony number was 33 cfu/dish.

What is called Inhibition is how much of the control response was suppressed.
